From patent US11505573B2, “Peptide macrocycles against Acinetobacter baumannii” (Hoffmann-La Roche Inc., priority 2018, dated 2022) come the findings set out here.

For the test, the system named is A. baumannii ATCC 17978. Put plainly: Antimicrobial susceptibility testing: 50% growth inhibitory concentration (IC50) determination in Iso-Sensitest broth. The following applies: Acinetobacter baumannii; A. baumannii strain ATCC17978; Iso-Sensitest medium; OD 600 nm over 16 h; 35±2° C.; read-out: IC50 ATCC17978 (50% growth inhibition concentration). The format is cell-based. The protocol: Antimicrobial Susceptibility Testing: 50% Growth Inhibitory Concentration (IC50) Determination The in vitro antimicrobial activity of the compounds was alternatively determined according to the following procedure: The assay used a 10-points Iso-Sensitest broth medium to measure quantitatively the in vitro activity of the compounds against A. baumannii ATCC 17978. Stock compounds in DMSO were serially twofold diluted (e.g. range from 10 to 0.02 μM final concentration) in 384 wells microtiter plates and inoculated with 49 μl the bacterial suspension in Iso-Sensitest medium to have a final cell concentration of ˜5×10^(5) CFU/ml in a final volume/well of […] Microtiter plates were incubated at 35±2° C. Bacterial cell growth was determined by the measurement of optical density at λ=600 nm each 20 minutes over a time course of 16 h. Growth inhibition was calculated during the logarithmic growth of the bacterial cells by determination of the concentration inhibiting 50% (IC50) and 90% (IC90) of the growth. Table 1 provides the 50% growth inhibitory concentrations (IC50) in micromoles per liter of the compounds of present invention obtained against the A. baumannnii strain ATCC17978.
For `CN1C(=O)[C@H](CCCN)NC(=O)[C@H](CCCN)NCc2cccnc2Sc2c(Cl)ccc(-c3ccc(-c4nnn[nH]4)cc3)c2CNC(=O)[C@@H]1Cc1c[nH]c2ccccc12` [Example 8.01, (11S,14S,17S)-11,14-bis(3-aminopropyl)-25-chloro-17-(1H-indol-3-ylmethyl)-16-methyl-22-[4-(1H-tetrazol-5-yl)phenyl]-2-thia-4,10,13,16,19-pentazatricyclo[19.4.0.03,8]pentacosa-1(21),3,5,7,22,24-hexaene-12,15,18-trione], the IC50 turned out to be 20 nM.
Consider `CN1C(=O)[C@H](CCCN)NC(=O)[C@H](CCCN)NCc2cccnc2Sc2c(Cl)ccc(-c3cnc(=O)[nH]c3)c2CNC(=O)[C@@H]1Cc1c[nH]c2ccccc12` [Example 8.02, (11S,14S,17S)-11,14-bis(3-aminopropyl)-25-chloro-17-(1H-indol-3-ylmethyl)-16-methyl-22-(2-oxo-1H-pyrimidin-5-yl)-2-thia-4,10,13,16,19-pentazatricyclo[19.4.0.03,8]pentacosa-1(21),3,5,7,22,24-hexaene-12,15,18-trione], for which the IC50 was 80 nM.
Regarding `CN1C(=O)[C@H](CCCN)NC(=O)[C@H](CCCN)NCc2cccnc2Sc2c(F)ccc(-c3ccc(S(=O)(=O)O)cc3)c2CNC(=O)[C@@H]1Cc1c[nH]c2ccccc12` [Example 9.00, 4-[(11S,14S,17S)-11,14-Bis(3-aminopropyl)-25-fluoro-17-(1H-indol-3-ylmethyl)-16-methyl-12,15,18-trioxo-2-thia-4,10,13,16,19-pentazatricyclo[19.4.0.03,8]pentacosa-1(25), 3(8),4,6,21,23-hexaen-22-yl]benzenesulfonic acid], the IC50 is 20 nM.
In the case of `CN1C(=O)[C@H](CCCN)NC(=O)[C@H](CCCN)NCc2cccnc2Sc2c(F)ccc(-c3ccc(-c4nnn[nH]4)cc3)c2CNC(=O)[C@@H]1Cc1c[nH]c2ccccc12` [Example 9.01, (11S,14S,17S)-11,14-Bis(3-aminopropyl)-25-fluoro-17-(1H-indol-3-ylmethyl)-16-methyl-22-[4-(1H-tetrazol-5-yl)phenyl]-2-thia-4,10,13,16,19-pentazatricyclo[19.4.0.03,8]pentacosa-1(25), 3(8),4,6,21,23-hexaene-12,15,18-trione], the IC50 was found to be 20 nM.
The value for `CN1C(=O)[C@H](CCCN)NC(=O)[C@H](CCCN)NCc2cccnc2Sc2c(F)ccc(-c3ccc(P(=O)(O)O)cc3)c2CNC(=O)[C@@H]1Cc1c[nH]c2ccccc12` [Example 10.00, [4-[(11S,14S,17S)-11,14-Bis(3-aminopropyl)-25-fluoro-17-(1H-indol-3-ylmethyl)-16-methyl-12,15,18-trioxo-2-thia-4,10,13,16,19-pentazatricyclo[19.4.0.03,8]pentacosa-1(25), 3(8),4,6,21,23-hexaen-22-yl]phenyl]phosphonic acid] was 620 nM.
Regarding `CN1C(=O)[C@H](CCCCN)NC(=O)[C@H](CCC(N)=O)NCc2cccnc2Sc2c(Cl)ccc(-c3ccc(P(=O)(O)O)cc3)c2CNC(=O)[C@@H]1Cc1c[nH]c2ccccc12` [Example 10.01, [4-[(11S,14S,17S)-14-(4-aminobutyl)-11-(3-amino-3-oxo-propyl)-25-chloro-17-(1H-indol-3-ylmethyl)-16-methyl-12,15,18-trioxo-2-thia-4,10,13,16,19-pentazatricyclo[19.4.0.03,8]pentacosa-1(21),3,5,7,22,24-hexaen-22-yl]phenyl]phosphonic acid], the IC50 worked out at 3030 nM.
With `CN1C(=O)[C@H](CCCCN)NC(=O)[C@H](CCCN)NCc2cccnc2Sc2c(Cl)ccc(-c3ccc(P(=O)(O)O)cc3)c2CNC(=O)[C@@H]1Cc1c[nH]c2ccccc12` [Example 10.02, [4-[(11S,14S,17S)-14-(4-aminobutyl)-11-(3-aminopropyl)-25-chloro-17-(1H-indol-3-ylmethyl)-16-methyl-12,15,18-trioxo-2-thia-4,10,13,16,19-pentazatricyclo[19.4.0.03,8]pentacosa-1(21),3,5,7,22,24-hexaen-22-yl]phenyl]phosphonic acid], the IC50 was 150 nM.
For the compound `Cc1ccc(-c2ccc(S(=O)(=O)O)cc2)c2c1Sc1ncccc1CN[C@@H](CCCN)C(=O)N[C@@H](CCCCN)C(=O)N(C)[C@@H](Cc1c[nH]c3ccccc13)C(=O)NC2` [Example 11.00, 4-[(11S,14S,17S)-14-(4-Aminobutyl)-11-(3-aminopropyl)-17-(1H-indol-3-ylmethyl)-16,25-dimethyl-12,15,18-trioxo-2-thia-4,10,13,16,19-pentazatricyclo[19.4.0.03,8]pentacosa-1(25), 3(8),4,6,21,23-hexaen-22-yl]benzenesulfonic acid], the IC50 stood at 20 nM.
On to `Cc1ccc(-c2ccc(-c3nnn[nH]3)cc2)c2c1Sc1ncccc1CN[C@@H](CCCN)C(=O)N[C@@H](CCCCN)C(=O)N(C)[C@@H](Cc1c[nH]c3ccccc13)C(=O)NC2` [Example 11.01, (11S,14S,17S)-14-(4-Aminobutyl)-11-(3-aminopropyl)-17-(1H-indol-3-ylmethyl)-16,25-dimethyl-22-[4-(1H-tetrazol-5-yl)phenyl]-2-thia-4,10,13,16,19-pentazatricyclo[19.4.0.03,8]pentacosa-1(25), 3(8),4,6,21,23-hexaene-12,15,18-trione], for which the IC50 came out at 20 nM.
`CN1C(=O)[C@H](CCCCN)NC(=O)[C@H](CCN)NCc2cccnc2Sc2c(Cl)ccc(-c3ccc(S(=O)(=O)O)cc3)c2CNC(=O)[C@@H]1Cc1c[nH]c2ccccc12` [Example 12.00, 4-[(11S,14S,17S)-14-(4-Aminobutyl)-11-(2-aminoethyl)-25-chloro-17-(1H-indol-3-ylmethyl)-16-methyl-12,15,18-trioxo-2-thia-4,10,13,16,19-pentazatricyclo[19.4.0.03,8]pentacosa-1(25), 3(8),4,6,21,23-hexaen-22-yl]benzenesulfonic acid]: the IC50 was 20 nM.
As for `CN1C(=O)[C@H](CCCN)NC(=O)[C@H](CCN)NCc2cccnc2Sc2c(Cl)ccc(-c3ccc(S(=O)(=O)O)cc3)c2CNC(=O)[C@@H]1Cc1c[nH]c2ccccc12` [Example 13.00, 4-[(11S,14S,17S)-11-(2-Aminoethyl)-14-(3-aminopropyl)-25-chloro-17-(1H-indol-3-ylmethyl)-16-methyl-12,15,18-trioxo-2-thia-4,10,13,16,19-pentazatricyclo[19.4.0.03,8]pentacosa-1(25), 3(8),4,6,21,23-hexaen-22-yl]benzenesulfonic acid], the IC50 stood at 20 nM.
In the case of `C[C@@H]1NCc2cccnc2Sc2c(Cl)ccc(-c3ccc(S(=O)(=O)O)cc3)c2CNC(=O)[C@H](Cc2c[nH]c3ccccc23)N(C)C(=O)[C@H](CCCN)NC1=O` [Example 14.00, 4-[(11S,14S,17S)-14-(3-Aminopropyl)-25-chloro-17-(1H-indol-3-ylmethyl)-11,16-dimethyl-12,15,18-trioxo-2-thia-4,10,13,16,19-pentazatricyclo[19.4.0.03,8]pentacosa-1(25), 3(8),4,6,21,23-hexaen-22-yl]benzenesulfonic acid], the IC50 turned out to be 720 nM.
As for `COc1ccc(-c2ccc(S(=O)(=O)O)cc2)c2c1Sc1ncccc1CN[C@@H](CCCN)C(=O)N[C@@H](CCCCN)C(=O)N(C)[C@@H](Cc1c[nH]c3ccccc13)C(=O)NC2` [Example 15.00, 4-[(11S,14S,17S)-14-(4-Aminobutyl)-11-(3-aminopropyl)-17-(1H-indol-3-ylmethyl)-25-methoxy-16-methyl-12,15,18-trioxo-2-thia-4,10,13,16,19-pentazatricyclo[19.4.0.03,8]pentacosa-1(25), 3(8),4,6,21,23-hexaen-22-yl]benzenesulfonic acid], the IC50 was 80 nM.
`COc1ccc(-c2ccc(-c3nnn[nH]3)cc2)c2c1Sc1ncccc1CN[C@@H](CCCN)C(=O)N[C@@H](CCCCN)C(=O)N(C)[C@@H](Cc1c[nH]c3ccccc13)C(=O)NC2` [Example 15.01, (11S,14S,17S)-14-(4-Aminobutyl)-1-(3-aminopropyl)-17-(1H-indol-3-ylmethyl)-25-methoxy-16-methyl-22-[4-(1H-tetrazol-5-yl)phenyl]-2-thia-4,10,13,16,19-pentazatricyclo[19.4.0.03,8]pentacosa-1(25), 3(8),4,6,21,23-hexaene-12,15,18-trione]: the IC50 stood at 40 nM.
The value for `CC(=O)NS(=O)(=O)c1ccc(-c2ccc(Cl)c3c2CNC(=O)[C@H](Cc2c[nH]c4ccccc24)N(C)C(=O)[C@H](CCCCN)NC(=O)[C@H](CCCO)NCc2cccnc2S3)cc1` [Example 16.00, N-[4-[(11S,14S,7S)-14-(4-aminobutyl)-25-chloro-11-(3-hydroxypropyl)-17-(1H-indol-3-ylmethyl)-16-methyl-12,15,18-trioxo-2-thia-4,10,13,16,19-pentazatricyclo[19.4.0.03,8]pentacosa-1(21),3,5,7,22,24-hexaen-22-yl]phenyl]sulfonylacetamide] was 310 nM; that for `CN1C(=O)[C@H](CCCCN)NC(=O)[C@H](CCCO)NCc2cccnc2Sc2c(Cl)ccc(-c3cnc(O)nc3)c2CNC(=O)[C@@H]1Cc1c[nH]c2ccccc12` [Example 16.01, (11S,14S,17S)-14-(4-Aminobutyl)-25-chloro-11-(3-hydroxypropyl)-22-(2-hydroxypyrimidin-5-yl)-17-(1H-indol-3-ylmethyl)-16-methyl-2-thia-4,10,13,16,19-pentazatricyclo[19.4.0.03,8]pentacosa-1(21),3,5,7,22,24-hexaene-12,15,18-trione] was 1840 nM.
